Results taken from publication PMC8831520, “Small molecule SWELL1 complex induction improves glycemic control and nonalcoholic fatty liver disease in murine Type 2 diabetes” (Nature Communications, 2022).

Test system: human umbilical vein endothelial cells (HUVECs)
Assay: SWELL1, pAKT2 and p-eNOS western blots in HUVECs
Type: cell-based
Details: 96 h
Method: HUVECs were purchased from ATCC (CRL-2922^TM) and were grown in M199 growth media supplemented with 20% FBS, 0.05 g Heparin Sodium Salt (Alfa Aesar), and 15 mg ECGS (Millipore Sigma). Cells were cultured on 1% of gelatin-coated plates at 37 °C and 5% CO2. For SN-40X stimulated eNOS and AKT signaling assays, HUVECs were treated for 96 h with the respective compounds and serum-starved overnight (+DMSO or +SN-40X) for 16 h in M199 media plus 1% FBS (Atlanta Biological). After the serum starve, HUVECs were returned to normal growth media for 30 min (+DMSO or +SN-40X) prior to lysate collection. Small interfering RNA (siRNA) mediated knockdown was adapted from Koh et. al., 2008[81]. Briefly, HUVECs were transfected with either a silencer select siRNA with si-SWELL1 (Cat#4392420, sense: […] antisense: […], Invitrogen) or a non-targeting control silencer select siRNA (Cat# 4390846, Invitrogen) upon reaching 90–95% confluency. siRNA was transfected twice, 24 and 72 h after initial seeding of HUVECs. Each siRNA was combined with Opti-MEM (285.25 µl, Cat#11058-021, Invitrogen) siPORT™ amine (8.75 µl, Cat#AM4503, Invitrogen), and the silencer select siRNA (6 µl) in a final volume of 300 µl. HUVECs were transfected for 4 h at 37 °C in 1% FBS containing DMEM media. For short hairpin RNA (shRNA) mediated knockdown approach, HUVECs were transduced with either human adenovirus type 5 targeting SWELL1 (Ad5-shSWELL1) or scrambled non-targeting control (Ad5-shSCR) at a multiplicity of infection (MOI) of 50 for 24 h at 37 °C upon reaching 70% confluency. The cells were then washed with DMEM media and transduced a second time, with a fresh virus, with an MOI of 25 for 12 h at 37 °C. After the final transduction step, the cells were serum-starved as described above for HUVECs, and lysates were collected. The SN-40X compounds were present in the culture media throughout the transfection/transduction for both the si/sh RNA mediated knockdown approaches. HEK-293 (ATCC, #CRL-1573™) cells were maintained in 90% DMEM (25 mM D-Glucose and 4 mM L-Glutamine) containing 10% fetal bovine serum (FBS) and 100 IU penicillin and 100 µg/ml streptomycin.
Adipocytes were washed twice in ice-cold phosphate buffer saline and lysed in RIPA buffer (150 mM NaCl, 20 mM HEPES, 1% NP-40, 5 mM EDTA, pH 7.4) with proteinase/phosphatase inhibitors (Roche). The cell lysate was further sonicated in 10 s cycle intervals 2–3 times and centrifuged at 18,407×g for 30 min at 4 °C and repeated one more time to remove the excess fat. The supernatant was collected and further estimated for protein concentration using a DC protein assay kit (Bio-Rad). Fat and liver tissues were homogenized and suspended in RIPA buffer with inhibitors and further processed in a similar fashion as described above. HUVECs were also prepared in a similar fashion except the lysates were spun only once to remove the cells debris to obtain the clear supernatant. For islets, either human or mouse islets were washed twice with phosphate buffer saline (PBS) and lysed using RIPA buffer containing protease and phosphatase inhibitors. The lysate was further clarified by freezing in liquid nitrogen for about 10 s for three cycles. The supernatant was collected from the whole lysate centrifuged at 16,260×g for 20 min at 4 °C. […] For soleus muscle, the tissue was homogenized in a Bullet Blender homogenizer (Speed-9, Time-3 mins) in 8 volumes of ice-cold muscle homogenization buffer (50 mM Tris, 25 mM NaCl, 0.2% Nonidet P-40, 5 mM EGTA, 2.5 mM EDTA, 20 mM NaF, 20 mM Na4P2O7·10H2O, 2 mM Na3VO4, pH 7.4) supplemented with protease/phosphatase inhibitor (Roche). The homogenized lysate was centrifuged two times at 18,500×g for 20 min at 4 °C and supernatant was collected for protein estimation. Protein samples were further prepared by boiling in 2X or 4X Laemmli buffer. […]

CCCCC1(C2CCCC2)Cc2cc(OCC(=O)O)c(Cl)c(Cl)c2C1=O (stereo not drawn) [Inactive 1, 2-((2-butyl-6,7-dichloro-2-cyclopentyl-1-oxo-2,3-dihydro-1H-inden-5-yl)oxy)acetic acid]
effect on SWELL1, pAKT2 and p-eNOS (500 nM): no effect

CCCCC1(C2CCCC2)Cc2cc(OCCCC(=O)O)c(Cl)c(Cl)c2C1=O (stereo not drawn) [SN-401, 4-((2-butyl-6,7-dichloro-2-cyclopentyl-1-oxo-2,3-dihydro-1H-inden-5-yl)oxy)butanoic acid]
eNOS phosphorylation (Ser1177) (500 nM): increases | dose dependence of p-eNOS induction (different concentrations): dose-dependent induction of p-eNOS in HUVECs that saturates beyond 100 nM

CCCCC1(C2CCCC2)Cc2cc(OCCCCCC(=O)O)c(Cl)c(Cl)c2C1=O (stereo not drawn) [SN-406, 6-((2-butyl-6,7-dichloro-2-cyclopentyl-1-oxo-2,3-dihydro-1H-inden-5-yl)oxy)hexanoic acid]
SWELL1 induction compared to vehicle (100 nM): 1.5 fold | basal pAKT2 induction compared to vehicle (100 nM): 2.8 fold | p-eNOS induction compared to vehicle (100 nM): 5.5 fold
